Assays:
PI3-Kα = PI3-Kα (Mus musculus (Mouse), UniProt P42337); assay: PI3-Kα Biochemical Assay (fluorescence polarization kinase assay)
Description: Compounds of the present invention were evaluated for potency against PI3-Kα using an in vitro kinase assay. PI3-Kα activity is measured in vitro by determining the level of phosphorylation of the substrate PI(4,5)P2. The formation of product PI(3,4,5)P3 is monitored by binding to the Grip1 PH domain in a ligand displacement fluorescence polarization (FP) assay, in which the TAMRA-labeled PI(3,4,5)P3 complexed with Grip1 PH domain is displaced by PI(3,4,5)P3 formed in the PI3-Kα reaction resulting in a decrease in FP signal. Mouse PI3-Kα P110 and P85 subunits were co-expressed in insect cells and co-purified to homogeneity. PI(4,5)P2 were obtained from Cayman. TAMRA-labeled PI(3,4,5)P3 were from Echelon, Grip1 PH domain from Dundee and other reagents were from Sigma.
All assays were performed in a Corning solid black 96-well half area plate using LJL Analyst (Molecular Devices) at room temperature. The assay buffer contained 50 mM HEPES, pH 7.4, 150 mM NaCl, 5 mM DTT, and 0.05% CHAPS. Dry powder PI(4,5)P2 was dissolved in 50 mM TRIS, pH 8 to make 1 mM stock solution. The PI(4,5)P2 stock solution was then diluted in the assay buffer to 60 μM, and sonicated for 30 sec before use. To the assay plate, the following reagents were added in sequence: 10 μL of 60 μM PI(4,5)P2, 5 μL of 4 nM PI3-Kα, 2 μL of compound in 25% DMSO, 3 μL of mixture containing 200 μM ATP and 33 mM MgCl2. The final volume for the reaction was 20 μL. The reaction mixture was incubated at room temperature for 35 min. The reaction was then stopped by 20 μL of 20 mM EDTA. […] The FP signal was allowed to develop for 40 min before reading on a LJL analyst at excitation 535 nm and emission 580 nm.
The percentage of inhibition was calculated based on the following equation % inhibition=[1−(FPcompound−FPmax)/(FPmin−FPmax)]×100, where FPcompound is the FP reading at a given compound concentration, FPmin is the FP signal of the PI3-Kα reaction in the absence of a compound, and FPmax is the background FP signal in the absence of PI3-Kα and a compound. The IC50 was determined by fitting the FP signal vs. compound concentration to a sigmoidal dose response equation using GraphPad Prism curve fitting program.

[1] = system: PI3-K in BT20 cells (phosphorylation of AKT at serine 473); assay: PI3-Kα Cellular Assay (AKT Ser473 phosphorylation ELISA in BT20 cells); assay type: cell-based, human; conditions: 1 hour incubation
Outline: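 Cells seeded overnight in 0.5% FBS, then exposed 1 h at 37 °C to an 11-concentration 1:3 dilution series, in duplicate.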

[2] = Homo sapiens, BT-20, pAKT Ser473 ELISA

Chain of PI3-Kα (P42337 whole entry, the tested form may be a part): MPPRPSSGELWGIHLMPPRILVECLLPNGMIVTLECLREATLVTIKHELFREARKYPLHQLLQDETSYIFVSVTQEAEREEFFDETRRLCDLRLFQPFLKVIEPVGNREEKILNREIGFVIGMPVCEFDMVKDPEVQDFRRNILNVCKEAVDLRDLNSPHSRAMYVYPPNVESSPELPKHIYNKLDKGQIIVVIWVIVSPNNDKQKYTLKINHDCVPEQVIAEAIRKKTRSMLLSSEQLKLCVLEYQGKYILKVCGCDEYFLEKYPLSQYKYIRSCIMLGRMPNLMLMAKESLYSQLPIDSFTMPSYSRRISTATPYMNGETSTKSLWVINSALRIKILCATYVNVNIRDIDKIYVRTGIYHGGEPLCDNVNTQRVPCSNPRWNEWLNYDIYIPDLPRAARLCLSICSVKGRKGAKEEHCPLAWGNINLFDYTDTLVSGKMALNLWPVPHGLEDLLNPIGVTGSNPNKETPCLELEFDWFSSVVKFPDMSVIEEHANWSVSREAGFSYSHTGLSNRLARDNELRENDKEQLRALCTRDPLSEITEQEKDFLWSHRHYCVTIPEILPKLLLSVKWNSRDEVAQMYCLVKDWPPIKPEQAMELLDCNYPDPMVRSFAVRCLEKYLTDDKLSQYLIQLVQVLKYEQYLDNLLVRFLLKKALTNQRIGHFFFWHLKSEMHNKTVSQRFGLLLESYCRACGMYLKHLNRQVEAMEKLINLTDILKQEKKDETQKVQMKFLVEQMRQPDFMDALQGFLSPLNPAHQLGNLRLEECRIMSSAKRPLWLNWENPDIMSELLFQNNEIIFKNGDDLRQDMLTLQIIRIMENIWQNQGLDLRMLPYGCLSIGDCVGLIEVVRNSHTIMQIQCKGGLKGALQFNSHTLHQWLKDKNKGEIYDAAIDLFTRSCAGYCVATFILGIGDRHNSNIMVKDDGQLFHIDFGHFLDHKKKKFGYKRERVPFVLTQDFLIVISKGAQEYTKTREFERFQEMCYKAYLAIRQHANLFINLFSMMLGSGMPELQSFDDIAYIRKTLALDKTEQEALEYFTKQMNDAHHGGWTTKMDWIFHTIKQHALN
Chain of PI3-Kα (P26450 whole entry partner, the tested form may be a part): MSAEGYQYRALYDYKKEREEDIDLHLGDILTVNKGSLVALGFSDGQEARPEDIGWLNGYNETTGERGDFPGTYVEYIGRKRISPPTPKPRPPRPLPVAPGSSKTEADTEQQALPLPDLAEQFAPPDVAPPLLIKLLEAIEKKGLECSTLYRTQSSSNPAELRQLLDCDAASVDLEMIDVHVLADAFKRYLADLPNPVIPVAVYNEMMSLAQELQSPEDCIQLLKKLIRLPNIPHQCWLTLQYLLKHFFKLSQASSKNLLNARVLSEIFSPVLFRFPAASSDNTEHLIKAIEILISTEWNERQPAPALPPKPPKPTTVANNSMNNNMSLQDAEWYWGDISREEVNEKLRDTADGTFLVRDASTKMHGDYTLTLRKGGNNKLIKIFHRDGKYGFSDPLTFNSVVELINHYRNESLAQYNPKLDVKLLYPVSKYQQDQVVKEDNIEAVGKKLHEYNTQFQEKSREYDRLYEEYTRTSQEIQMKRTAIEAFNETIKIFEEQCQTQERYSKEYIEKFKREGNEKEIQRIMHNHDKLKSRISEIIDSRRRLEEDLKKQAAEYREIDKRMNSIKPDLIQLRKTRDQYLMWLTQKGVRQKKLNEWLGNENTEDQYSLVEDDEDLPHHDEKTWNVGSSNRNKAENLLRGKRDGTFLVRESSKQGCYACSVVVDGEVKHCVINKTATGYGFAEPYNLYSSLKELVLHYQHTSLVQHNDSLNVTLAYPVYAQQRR

| Structure (SMILES) | IC50 (PI3-Kα) | IC50 [1, 2] | IC50 ([1]; pAKT Ser473 ELISA) | inhibition at 50 µM (PI3-Kα; at 50 μM) |
| --- | --- | --- | --- | --- |
| Cc1nc(N)nc2c1cc(-c1cnc3[nH]ccc3c1)c(=O)n2[C@H]1CC[C@H](O)CC1 [Compound 158, 2-amino-8-(trans-4-hydroxycyclohexyl)-4-methyl-6-(1H-pyrrolo[2,3-b]pyridin-5-yl)pyrido[2,3-d]pyrimidin-7(8H)-one] | 1.3 nM | 31.9 nM |  |  |
| COc1ccc(-c2cc3c(C)nc(N)nc3n(CCC3CC3)c2=O)cn1 [Compound 233, 2-Amino-8-(2-cyclopropyl-ethyl)-6-(6-methoxy-pyridin-3-yl)-4-methyl-8H-pyrido[2,3-d]pyrimidin 7-one] | 11 nM | 94.2 nM |  |  |
| Cc1nc(N)nc2c1cc(-c1ccncc1)c(=O)n2Cc1ccc(Cl)cc1 [Compound 151, 8-(4-Chlorobenzyl)-2-amino-4-methyl-6-(pyridin-4-yl)pyrido[2,3-d]pyrimidin-7(8H)-one] | 4900 nM | > 10000 nM |  |  |
| COc1ncccc1-c1cc2c(C)nc(N)nc2n(C2CCCC2)c1=O [Compound 126] | 856 nM | 5480 nM |  |  |
| Cc1nc(N)nc2c1cc(-c1cccc(CO)c1)c(=O)n2C1CCCC1 [Compound 256] | 3.1 nM |  | 20.2 nM |  |
| CCNc1nc(C)c2cc(CCC(=O)N(C)C)c(=O)n(C3CCCC3)c2n1 [Compound 121, 3-(8-Cyclopentyl-2-(ethylamino)-4-methyl-7-oxo-7,8-dihydropyrido[2,3-d]pyrimidin-6-yl)-N,N-dimethylpropanamide] |  | 10000 nM |  | 27% |
| CNc1nc(C)c2cc(-c3cccc(OC)c3)c(=O)n(C3CCCC3)c2n1 [Compound 143, 8-cyclopentyl-6-(3-methoxyphenyl)-4-methyl-2-(methylamino)pyrido[2,3-d]pyrimidin-7(8H)-one] | 244 nM | 669 nM |  |  |
| CNc1nc(C)c2cc(C(=O)Nc3ccon3)c(=O)n(C3CCCC3)c2n1 [Compound 283, 8-cyclopentyl-N-isoxazol-3-yl-4-methyl-2-(methylamino)-7-oxo-7,8-dihydropyrido[2,3-d]pyrimidine-6-carboxamide] | 5 nM | 72.2 nM |  |  |
| Cc1nc(N)nc2c1cc(-c1ccc(N(C)C)nc1)c(=O)n2[C@H]1CC[C@H](OCCO)CC1 [Compound 292] | 9.28 nM | 12.1 nM |  |  |
| Cc1nc(N)nc2c1cc(-c1cnc3[nH]ccc3c1)c(=O)n2[C@@H]1CC[C@@H](O)C1 [Compound 165, 2-amino-8-[(1R,3R)-3-hydroxycyclopentyl]-4-methyl-6-(1H-pyrrolo[2,3-b]pyridin-5-yl)pyrido[2,3-d]pyrimidin-7(8H)-one] | 1.2 nM | 55.8 nM |  |  |
| Cc1nc(N)nc2c1cc(C#N)c(=O)n2C1CCC1 [Compound 269, 2-Amino-8-cyclobutyl-4-methyl-7-oxo-7,8-dihydropyrido[2,3-d]pyrimidine-6-carbonitrile] | 95 nM | 2090 nM |  |  |
| Cc1nc(N)nc2c1cc(-c1cc[nH]n1)c(=O)n2[C@H]1CC[C@H](O)CC1 [Compound 186, 2-Amino-8-((trans)-4-hydroxycyclohexyl)-4-methyl-6-(1H-pyrazol-3-yl)pyrido[2,3-d]pyrimidin-7(8H)-one] | 10 nM | 25.2 nM |  |  |
| CCn1cc(CNC(=O)c2cc3c(C)nc(NC)nc3n(C3CCCC3)c2=O)cn1 [Compound 281, 8-cyclopentyl-N-[(1-ethyl-1H-pyrazol-4-yl)methyl]-4-methyl-2-(methylamino)-7-oxo-7,8-dihydropyrido[2,3-d]pyrimidine-6-carboxamide] | 1200 nM | > 10000 nM |  |  |
| COc1ccc(-c2cc3c(C)nc(N)nc3n([C@H]3C[C@H](OCC(N)=O)C3)c2=O)cn1 [Compound 317, 2-({trans-3-[2-amino-6-(6-methoxypyridin-3-yl)-4-methyl-7-oxopyrido[2,3-d]pyrimidin-8(7H)-yl]cyclobutyl}oxy)acetamide] | 4.72 nM | 33.5 nM |  |  |
| CO[C@H]1CC[C@H](n2c(=O)c(Br)cc3c(C)nc(N)nc32)CC1 [Compound 178] | 31 nM | 64 nM |  |  |
| COc1ccc(-c2cc3c(C)nc(N)nc3n([C@@H]3CC[C@@H](O)C3)c2=O)cn1 [Compound 159, 2-amino-8-[(1R,3R)-3-hydroxycyclopentyl]-6-(6-methoxypyridin-3-yl)-4-methylpyrido[2,3-d]pyrimidin-7(8H)-one] | 4.6 nM | 87.6 nM |  |  |
| CCNc1nc(C)c2cc(CCC(=O)Nc3ncc[nH]3)c(=O)n(C3CCCC3)c2n1 [Compound 119] | 310 nM | 5710 nM |  |  |
| Cc1nc(N)nc2c1cc(-c1cnc(N)cn1)c(=O)n2C1CCCC1 [Compound 229, 2-amino-6-(5-aminopyrazin-2-yl)-8-cyclopentyl-4-methylpyrido[2,3-d]pyrimidin-7(8H)-one] | 15 nM | 17.9 nM |  |  |
| Cc1nc(NCC(C)(C)O)nc2c1cc(-c1cccc(O)c1)c(=O)n2C1CCCC1 [Compound 114, 8-Cyclopentyl-2-(2-hydroxy-2-methylpropylamino)-6-(3-hydroxyphenyl)-4-methylpyrido[2,3-d]-pyrimidin-7(8H)-one] | 110 nM | 1180 nM |  |  |
| COc1ccc(-c2cc3c(C)nc(N)nc3n(C3CCC(=O)CC3)c2=O)cn1 [Compound 175, 2-amino-6-(6-methoxypyridin-3-yl)-4-methyl-8-(4-oxocyclohexyl)pyrido[2,3-d]pyrimidin-7(8H)-one] | 4.3 nM | 19.3 nM |  |  |
| Cc1nc(N)nc2c1cc(C(=O)Nc1ccn[nH]1)c(=O)n2[C@H]1CC[C@H](O)CC1 [Compound 251, 2-Amino-8-(trans-4-hydroxycyclohexyl)-4-methyl-7-oxo-N-1H-pyrazol-5-yl-7,8-dihydropyrido[2,3-d]pyrimidine-6-carboxamide] | 0.59 nM | 28.3 nM |  |  |
| Cc1nc(N)nc2c1cc(-c1cnn(C)c1)c(=O)n2[C@H]1CC[C@H](OCCO)CC1 [Compound 302, 2-amino-8-[trans-4-(2-hydroxyethoxy)cyclohexyl]-4-methyl-6-(1-methyl-1H-pyrazol-4-yl)pyrido[2,3-d]pyrimidin-7(8H)-one] | 22.3 nM | 226 nM |  |  |
| CNc1nc(C)c2cc(/C=C/O)c(=O)n(C3CCCC3)c2n1 [Compound 120, (E)-8-cyclopentyl-6-(2-hydroxyvinyl)-4-methyl-2-(methylamino)pyrido[2,3-d]pyrimidin-7(8H)-one] | 42 nM | 896 nM |  |  |
| COc1ccc(-c2cc3c(C)nc(N)nc3n(CC(C)(C)F)c2=O)cn1 [Compound 244, 2-Amino-8-(2-fluoro-2-methyl-propyl)-6-(6-methoxy-pyridin-3-yl)-4-methyl-8H-pyrido[2,3-d]pyrimidin-7-one] | 30 nM | 437 nM |  |  |
| COc1ccc(-c2cc3c(C)nc(N)nc3n([C@H]3CC[C@H](OC[C@@H](O)CO)CC3)c2=O)cn1 [Compound 300, 2-amino-8-(trans-4-{[(2S)-2,3-dihydroxypropyl]oxy}cyclohexyl)-6-(6-methoxypyridin-3-yl)-4-methylpyrido[2,3-d]pyrimidin-7(8H)-one] | 6.82 nM | 13.2 nM |  |  |
| CNc1nc(C)c2cc(-c3cnn(CCO)c3)c(=O)n(C3CCCC3)c2n1 [Compound 105, 8-Cyclopentyl-6-(1-(2-hydroxyethyl)-1H-pyrazol-4-yl)-4-methyl-2-(methylamino)pyrido[2,3-d]pyrimidin-7(8H)-one] | 24 nM | 234 nM |  |  |
| Cc1nc(N)nc2c1cc(-c1ccc(Cl)nc1)c(=O)n2C1CCCC1 [Compound 112, 2-amino-6-(6-chloropyridin-3-yl)-8-cyclopentyl-4-methylpyrido[2,3-d]pyrimidin-7(8H)-one] | 39.1 nM | 74.2 nM |  |  |
| COc1ncc(-c2cc3c(C)nc(N)nc3n([C@H]3CC[C@H](OCCO)CC3)c2=O)cc1F [Compound 288, 2-amino-6-(5-fluoro-6-methoxypyridin-3-yl)-8-[trans-4-(2-hydroxyethoxy)cyclohexyl]-4-methylpyrido[2,3-d]pyrimidin-7(8H)-one] | 1.44 nM | 5.3 nM |  |  |
| Cc1nc(N)nc2c1cc(-c1cn[nH]c1)c(=O)n2C1CCOC1 (stereo not drawn) [Compound 203] | 20 nM | 25.8 nM |  |  |
| Cc1nc(N)nc2c1cc(-c1cnc3[nH]ccc3c1)c(=O)n2C1CCC1 [Compound 207, 2-amino-8-cyclobutyl-4-methyl-6-(1H-pyrrolo[2,3-d]pyridin-5-yl)pyrido[2,3-d]pyrimidin-7(8H)-one] | 2 nM | 11.9 nM |  |  |

— patent US8633204B2 (Pfizer Inc., priority 2006, dated 2014)
